Measured values published in ChEMBL document CHEMBL6096682, “Discovery of D-Ring-Contracted Artemisinin as a Potent Hydrophobic Tag for Targeted Protein Degradation” (J Med Chem, 2025).
Each block holds one molecule with its values, some of them ahead of it. Activity calls are given as the source filed them. The calls are words filed in the database; no cut-off is given here.

Columns and labels:
[1] = system: MCF7; assay: Antiproliferative activity against human MCF7 cells assessed as reduction in cell viability incubated for 48 hrs by MTT assay; type: functional, cell-based; settings: MCF7, 48 h
[2] = system: MCF7; assay: Antiproliferative activity against human MCF7 cells assessed as reduction in cell viability incubated for 48 hrs by MTT assay relative to control; type: functional
[3] = system: MCF7; assay: Antitumor activity against human MCF7 cells xenografted in Balb/c mouse assessed as inhibition of tumor growth at 5 mg/kg, iv administered every 3 days and measured for 21 days; type: functional; settings: MCF7, 504 h, time 21 day, read-out: TGI
[4] = molecular target: T1, Estrogen receptor (Homo sapiens) (UniProt P03372); assay: HyT degrader activity at ER-alpha in human MCF7 cells assessed as induction of ER-alpha degradation by measuring decrease in ER-alpha level at 10 uM incubated for 48 hrs by western blot analysis; type: cell-based; design: scale not given: the % may be the effect or the level left
T1 sequence (whole entry): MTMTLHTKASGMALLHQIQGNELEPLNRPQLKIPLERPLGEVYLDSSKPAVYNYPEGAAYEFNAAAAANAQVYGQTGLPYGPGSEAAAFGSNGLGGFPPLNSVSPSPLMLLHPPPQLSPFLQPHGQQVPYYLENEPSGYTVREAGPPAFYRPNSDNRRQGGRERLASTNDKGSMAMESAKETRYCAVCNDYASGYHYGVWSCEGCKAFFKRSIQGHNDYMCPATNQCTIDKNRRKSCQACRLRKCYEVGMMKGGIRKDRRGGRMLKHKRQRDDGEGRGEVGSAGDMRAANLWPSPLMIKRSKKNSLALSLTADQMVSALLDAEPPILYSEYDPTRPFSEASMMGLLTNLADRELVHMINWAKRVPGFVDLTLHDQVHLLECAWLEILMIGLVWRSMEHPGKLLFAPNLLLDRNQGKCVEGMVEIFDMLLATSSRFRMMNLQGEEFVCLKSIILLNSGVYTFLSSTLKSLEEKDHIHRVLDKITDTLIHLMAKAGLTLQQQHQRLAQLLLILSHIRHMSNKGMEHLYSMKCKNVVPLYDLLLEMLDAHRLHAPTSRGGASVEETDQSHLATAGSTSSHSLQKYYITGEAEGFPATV

[5] = system: MCF7; assay: Antiproliferative activity against human MCF7 cells overexpressing ER-alpha Y537S mutant assessed as reduction in cell viability incubated for 48 hrs by MTT assay relative to control; type: functional
[6] = system: MCF7; assay: Antiproliferative activity against human MCF7 cells overexpressing EGFR assessed as reduction in cell viability incubated for 48 hrs by MTT assay; type: functional, cell-based; settings: MCF7, 48 h
[7] = system: MCF7; assay: Antiproliferative activity against human MCF7 cells overexpressing ER-alpha Y537S mutant assessed as reduction in cell viability incubated for 48 hrs by MTT assay; type: functional, cell-based; settings: MCF7, 48 h
[8] = system: MCF7; assay: Antiproliferative activity against human MCF7 cells overexpressing EGFR assessed as reduction in cell viability incubated for 48 hrs by MTT assay relative to control; type: functional
[9] = molecular target: T1, Estrogen receptor (Homo sapiens); assay: HyT degrader activity at ER-alpha in human MCF7 cells assessed as induction of ER-alpha degradation by measuring decrease in ER-alpha level at 10 uM incubated for 48 hrs followed by drug wash-out and measured after 24 hrs by western blot analysis; type: cell-based
[10] = molecular target: Cyclin-dependent kinase 6 (Homo sapiens) (UniProt Q00534); assay: HyT degrader activity at CDK6 in human MCF7 cells assessed as induction of CDK6 degradation at 10 uM incubated for 24 hrs by immunoblot analysis; type: cell-based
Sequence of Cyclin-dependent kinase 6 (Homo sapiens) (Q00534 whole entry): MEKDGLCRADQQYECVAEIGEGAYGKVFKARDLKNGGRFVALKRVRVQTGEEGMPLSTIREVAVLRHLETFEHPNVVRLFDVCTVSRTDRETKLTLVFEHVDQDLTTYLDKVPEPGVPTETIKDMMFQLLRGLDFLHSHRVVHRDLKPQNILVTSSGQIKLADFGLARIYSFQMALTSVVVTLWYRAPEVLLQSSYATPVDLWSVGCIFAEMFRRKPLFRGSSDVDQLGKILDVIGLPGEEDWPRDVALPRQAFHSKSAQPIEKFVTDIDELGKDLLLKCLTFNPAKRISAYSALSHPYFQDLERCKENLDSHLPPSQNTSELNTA

[11] = molecular target: Cyclin-dependent kinase 6 (Homo sapiens) (UniProt Q00534); assay: HyT degrader activity at CDK6 in human MCF7 cells assessed as induction of CDK6 degradation at 0.1 to 10 uM incubated for 24 hrs by immunoblot analysis; type: cell-based; settings: dose 0.1-10 µM
[12] = molecular target: Histone deacetylase 1 (Homo sapiens) (UniProt Q13547); assay: HyT degrader activity at HDAC1 in human MCF7 cells assessed as induction of HDAC1 degradation by measuring decrease in HDAC1 level at 0.1 to 50 uM incubated for 24 hrs by immunoblot analysis; type: cell-based; settings: dose 0.1-50 µM
Sequence of Histone deacetylase 1 (Homo sapiens) (Q13547 whole entry): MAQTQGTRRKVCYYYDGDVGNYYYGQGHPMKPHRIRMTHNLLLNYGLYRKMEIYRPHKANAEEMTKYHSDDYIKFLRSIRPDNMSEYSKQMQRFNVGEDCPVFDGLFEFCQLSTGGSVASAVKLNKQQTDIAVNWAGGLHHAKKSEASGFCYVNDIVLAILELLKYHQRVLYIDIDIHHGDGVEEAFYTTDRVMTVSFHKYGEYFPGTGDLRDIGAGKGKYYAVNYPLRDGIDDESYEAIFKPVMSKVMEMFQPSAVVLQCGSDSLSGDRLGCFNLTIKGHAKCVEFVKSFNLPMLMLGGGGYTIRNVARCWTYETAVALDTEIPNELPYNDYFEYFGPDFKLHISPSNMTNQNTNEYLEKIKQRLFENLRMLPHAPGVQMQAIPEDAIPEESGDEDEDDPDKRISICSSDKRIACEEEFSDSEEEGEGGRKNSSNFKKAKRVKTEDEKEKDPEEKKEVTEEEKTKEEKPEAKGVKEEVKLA

[13] = molecular target: T2, Protein deacetylase HDAC6 (Homo sapiens) (UniProt Q9UBN7); assay: HyT degrader activity at HDAC6 in human MCF7 cells assessed as induction of HDAC6 degradation by measuring decrease in HDAC6 level at 0.1 to 10 uM incubated for 24 hrs by immunoblot analysis; type: cell-based; settings: dose 0.1-10 µM
T2 sequence (whole entry): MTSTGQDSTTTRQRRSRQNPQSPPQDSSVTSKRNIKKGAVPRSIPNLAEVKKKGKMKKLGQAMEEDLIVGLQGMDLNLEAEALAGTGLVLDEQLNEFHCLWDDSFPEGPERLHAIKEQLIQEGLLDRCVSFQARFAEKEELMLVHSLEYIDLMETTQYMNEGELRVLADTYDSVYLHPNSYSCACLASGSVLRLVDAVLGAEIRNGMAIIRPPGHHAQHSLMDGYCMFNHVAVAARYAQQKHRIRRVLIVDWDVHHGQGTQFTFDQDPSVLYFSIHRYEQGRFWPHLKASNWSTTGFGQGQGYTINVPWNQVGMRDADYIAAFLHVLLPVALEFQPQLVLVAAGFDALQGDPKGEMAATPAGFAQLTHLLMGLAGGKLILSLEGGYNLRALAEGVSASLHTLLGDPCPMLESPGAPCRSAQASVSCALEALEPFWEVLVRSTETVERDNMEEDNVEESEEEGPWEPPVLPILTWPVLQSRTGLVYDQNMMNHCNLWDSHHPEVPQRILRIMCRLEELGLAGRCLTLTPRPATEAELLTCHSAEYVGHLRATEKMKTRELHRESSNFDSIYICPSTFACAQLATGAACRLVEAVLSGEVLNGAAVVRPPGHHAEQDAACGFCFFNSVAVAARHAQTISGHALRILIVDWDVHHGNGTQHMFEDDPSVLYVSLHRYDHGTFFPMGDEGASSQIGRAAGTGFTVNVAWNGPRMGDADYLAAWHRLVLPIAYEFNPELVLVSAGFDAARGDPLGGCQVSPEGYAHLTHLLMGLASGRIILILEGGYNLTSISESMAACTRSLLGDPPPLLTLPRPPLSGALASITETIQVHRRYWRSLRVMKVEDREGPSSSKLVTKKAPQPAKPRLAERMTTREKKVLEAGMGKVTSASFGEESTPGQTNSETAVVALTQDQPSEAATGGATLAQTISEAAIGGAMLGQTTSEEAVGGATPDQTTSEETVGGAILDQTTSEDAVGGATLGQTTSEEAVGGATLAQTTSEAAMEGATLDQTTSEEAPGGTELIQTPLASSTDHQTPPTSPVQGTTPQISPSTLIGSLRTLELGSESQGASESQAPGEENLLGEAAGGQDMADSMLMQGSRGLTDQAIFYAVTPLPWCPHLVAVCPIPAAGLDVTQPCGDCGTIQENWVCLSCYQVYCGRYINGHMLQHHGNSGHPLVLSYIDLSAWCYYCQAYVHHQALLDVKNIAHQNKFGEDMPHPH

[14] = molecular target: T3, Histone deacetylase (Homo sapiens) (UniProt Q13547+O15379+Q9UBN7+Q92769+Q9UQL6+Q8WUI4+Q9BY41+Q96DB2+P56524+Q9UKV0+Q969S8); assay: HyT degrader activity at HDAC in human MCF7 cells assessed as induction of HDAC degradation by measuring increase in acetylated histone H3 level at 0.1 to 50 uM incubated for 24 hrs by immunoblot analysis; type: cell-based; settings: dose 0.1-50 µM
[15] = molecular target: T3, Histone deacetylase (Homo sapiens); assay: HyT degrader activity at HDAC in human MCF7 cells assessed as induction of HDAC degradation by measuring increase in acetylated alpha-tubulin level at 0.1 to 50 uM incubated for 24 hrs by immunoblot analysis; type: cell-based; settings: dose 0.1-50 µM
[16] = molecular target: Histone deacetylase 1 (Homo sapiens) (UniProt Q13547); assay: HyT degrader activity at HDAC1 in human MCF7 cells assessed as induction of HDAC1 degradation at 10 uM incubated for 24 hrs by immunoblot analysis; type: cell-based
[17] = molecular target: Histone deacetylase 2 (Homo sapiens) (UniProt Q92769); assay: HyT degrader activity at HDAC2 in human MCF7 cells assessed as induction of HDAC2 degradation by measuring decrease in HDAC2 level at 0.1 to 50 uM incubated for 24 hrs by immunoblot analysis; type: cell-based; settings: dose 0.1-50 µM
Sequence of Histone deacetylase 2 (Homo sapiens) (Q92769 whole entry): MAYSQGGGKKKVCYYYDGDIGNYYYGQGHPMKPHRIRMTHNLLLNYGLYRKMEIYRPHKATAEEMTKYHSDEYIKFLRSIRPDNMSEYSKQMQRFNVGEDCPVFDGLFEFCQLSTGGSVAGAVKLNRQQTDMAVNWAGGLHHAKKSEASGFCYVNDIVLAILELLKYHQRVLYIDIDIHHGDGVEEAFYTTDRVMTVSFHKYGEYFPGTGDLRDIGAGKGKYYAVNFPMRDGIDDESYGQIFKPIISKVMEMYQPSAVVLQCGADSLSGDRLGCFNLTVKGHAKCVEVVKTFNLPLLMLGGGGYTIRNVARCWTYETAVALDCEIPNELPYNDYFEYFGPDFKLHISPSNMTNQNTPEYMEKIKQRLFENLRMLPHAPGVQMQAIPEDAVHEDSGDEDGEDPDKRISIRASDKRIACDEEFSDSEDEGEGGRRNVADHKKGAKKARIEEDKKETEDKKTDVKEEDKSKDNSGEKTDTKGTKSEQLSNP

Structure (SMILES): C[C@@H]1CCC2[C@]34OO[C@](C)(CCC13)O[C@@H]4O[C@]2(C)C(=O)NCCCCCCOc1ccc(C(=O)c2c(-c3ccc(O)cc3)sc3cc(O)ccc23)cc1 (stereo partly specified)
IC50 [1]: 45.7 µM | inhibition (INH) [2]: 57.1%

Structure (SMILES): C[C@@H]1CCC2[C@]34OO[C@](C)(CCC13)OC4O[C@]2(C)C(=O)NCCOc1ccc(C(=O)c2c(-c3ccc(O)cc3)sc3cc(O)ccc23)cc1 (single isomer, unassigned)
IC50 [1]: > 100 µM | inhibition (INH) [2]: 42.6%

Structure (SMILES): O=C(c1ccc(OCCN2CCCCC2)cc1)c1c(-c2ccc(O)cc2)sc2cc(O)ccc12 [RALOXIFENE]
inhibition in vivo at 5 mg/kg [3]: 68.8%

Activity [4]: 77.5% | IC50 [6]: 16 µM | IC50 [7]: > 50 µM | IC50 [1]: 9.54 µM | Activity [9]: Active
Structure (SMILES): O=C(c1ccc(OCCCNC(=O)C23CC4CC(CC(C4)C2)C3)cc1)c1c(-c2ccc(O)cc2)sc2cc(O)ccc12
inhibition (INH) [5]: 41.7% | inhibition (INH) [8]: 57.9% | inhibition (INH) [2]: 70.8%

Structure (SMILES): CC(=O)c1c(C)c2cnc(NCCCNC(=O)[C@@]3(C)OC4O[C@@]5(C)CCC6[C@H](C)CCC3[C@@]46OO5)nc2n(C2CCCC2)c1=O (single isomer, unassigned)
Activity [10]: 73% | Activity [11]: Active | IC50 [1]: 5 µM

Structure (SMILES): C[C@@H]1CCC2[C@]34OO[C@](C)(CCC13)OC4O[C@]2(C)C(=O)NCCCC(=O)Nc1ccc(NC(=O)CCCCCCC(=O)NO)cc1 (single isomer, unassigned)
Activity [12]: Active | Activity [13]: Active | Activity [14]: Active | Activity [15]: Active | Activity [16]: 84% | IC50 [1]: 5.26 µM | Activity [17]: Active

Structure (SMILES): C[C@@H]1CCC2[C@]34OO[C@](C)(CCC13)O[C@@H]4O[C@]2(C)C(=O)NCCCCOc1ccc(C(=O)c2c(-c3ccc(O)cc3)sc3cc(O)ccc23)cc1 (stereo partly specified)
IC50 [1]: 11.4 µM | inhibition (INH) [2]: 63.5%

Structure (SMILES): C[C@]12CC[C@@H]3c4ccc(O)cc4C[C@@H](CCCCCCCCC[S+]([O-])CCCC(F)(F)C(F)(F)F)[C@H]3[C@@H]1CC[C@@H]2O (stereo partly specified) [FULVESTRANT]
inhibition in vivo at 5 mg/kg [3]: 87%
